Measurements from US4988707A, “Pharmacologically active phenylalkanoyl substituted imidazo (4,5-C) pyridines” (G. D. Searle & Co., priority 1989, dated 1991).

Assays:
Rabbit Platelet [1] = experiment: PAF-induced platelet secretion ([3H]serotonin); format: cell-based; details: Oryctolagus cuniculus, washed [3H]serotonin-labeled rabbit platelets, 60 sec preincubation, PAF 0.2 nM to 0.2 μM, secretion at 60 sec
Procedure: (§1) PAF-induced platelet aggregation and secretion: Washed, [^3 H]serotonin-labeled rabbit platelets were prepared as previously described in COX, C. P , J. LINDEN and S. I. SAID: VIP elevates platelet cyclic AMP (cAMP) levels and inhibits in vitro platelet activation induced by platelet activating factor (PAF). Peptides 5:25-28, 1984, and maintained in an atmosphere of 5% CO2 at 37° C. until used in the bioassay. Aliquots of platelets (2.5×10^8 /ml) were incubated with either an antagonist of PAF or the appropriate vehicle for 60 sec prior to the addition of PAF (0.2 nM to 0.2 μM). Aggregation was continuously monitored on a strip-chart recorder and recorded as the height of the tracing at 60 sec after the addition of PAF. Secretion of [^3 H] serotonin was measured in a sample of the platelet suspension removed at 60 sec after the addition of PAF. The percent inhibition of aggregation and secretion was calculated by comparing antagonist-treated platelets with the appropriate vehicle-treated control platelets. Each combination of antagonist and PAF was repeated using different platelet preparations. IC50 values were determined by inspection of the dose-response curves.

Rabbit Platelet [2] = experiment: PAF-induced platelet aggregation; format: cell-based; details: Oryctolagus cuniculus, washed rabbit platelets, 60 sec preincubation, PAF 0.2 nM to 0.2 μM, aggregation at 60 sec
Procedure: as §1

Human Platelet Receptor = Human Platelet Receptor (Homo sapiens, UniProt P25105)
Chain of Human Platelet Receptor (P25105 whole entry): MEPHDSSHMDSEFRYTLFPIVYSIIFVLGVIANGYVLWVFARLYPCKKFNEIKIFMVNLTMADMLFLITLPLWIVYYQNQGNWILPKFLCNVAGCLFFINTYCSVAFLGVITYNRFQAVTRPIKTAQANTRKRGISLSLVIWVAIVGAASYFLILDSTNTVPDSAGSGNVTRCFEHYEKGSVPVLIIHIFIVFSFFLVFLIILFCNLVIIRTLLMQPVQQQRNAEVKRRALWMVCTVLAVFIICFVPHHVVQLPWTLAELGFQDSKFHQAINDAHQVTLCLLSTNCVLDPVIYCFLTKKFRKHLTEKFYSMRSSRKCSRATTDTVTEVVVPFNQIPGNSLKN
Procedure: Inhibition of ^3 H-PAF Binding to Human Platelet Membrane Receptors
Receptor Preparation: Ten units of in-dated human packed platelets, each containing 45-65 ml platelet rich-plasma, were purchased from a commercial blood bank. Disposable plasticware was used throughout for receptor preparation. The units were pooled and a 1 ml aliquot was removed for determination of platelet concentration, using a Coulter Counter. The remaining platelet rich plasma was dispensed into 50 ml conical tubes and centrifuged at room temperature for 15 minutes at 3000 RPM (2300×g).Plasma was decanted and the platelets were resuspended in 35 ml of buffer (10 mM Trizma 7.0, 2 mM EDTA (dipotassium salt), and 150 mM KCl) and transferred to fresh tubes, which were centrifuged again as above. The platelets were washed 3 times, avoiding contaminating erythrocytes at the bottom of the pellets. Pellets were consolidated at each step, and by the last wash with EDTA/KCl buffer, most of the erythrocytes were in 1 tube. The pellets were resuspended in buffer containing 10 mM Trizma 7.0 with 10 mM CaCl2. Following centrifugation, the buffer was decanted and the pellets were resuspended in the CaCl2 buffer, avoiding erythrocyte contamination by recovering less than 100% of the platelet pellets. The resuspended platelets were dispensed in 8-10 ml aliquots into Corex tubes and disrupted by three cycles of freezing (dry ice/ethanol) and thawing (24° C.). The tubes were centrifuged at 40,000×g for 20 minutes at 4° C. Supernatants were decanted and each pellet was resuspended in 5-7 ml 10 mM Trizma 7.0. All resuspended pellets were pooled and aliquots of about 1200 μl were dispensed into 1.5 ml microfuge tubes and frozen at -70° C. Protein content was determined by a fluorescamine protein assay.
Assay Methods: Receptor Characterization--Each receptor preparation was evaluated to determine the number of receptor populations, the number of PAF receptor equivalents/mg protein and the dissociation constant (KD) for PAF binding. This required 2-3 experiments in which the protein concentration was held constant and the ^3 H-PAF ligand concentration was varied from approximately 0.10-2.5 nM and the data was analyzed by Scatchard methodology. Total incubation volume was 250 μl for these procedures and incubations were conducted at 24° C. for 30 minutes. For further experimentation, total incubation volumes are 500 μl. Protein and ligand concentrations were adjusted to give 0.075 nM receptor equivalents in the presence of 0.75 nM ^3 H-PAF. Each receptor preparation was then used to determine the dose--response displacement relationship of unlabeled PAF and the PAF antagonist, triazolam.
Assay Methods: Routine Assay of Compounds--The compounds were weighed precisely and solubilized in quantities of DMSO such that a 5 μl aliquot in the incubate would deliver the desired compound concentration. Compounds tested for the first time in this assay were evaluated at a concentration of 50 μM in the incubation medium. […] Triazolam was always included in each screening assay as a compound inhibition control. […] Nonspecific binding control solution was made by drying to completion about 26.2 μl unlabeled PAF under a stream of argon. PAF was resolubilized in 1000 μl DMSO. When delivered in a 5 μl aliquot, the final concentration of 1 μM PAF in the incubate exceeded by 1000-fold the concentration of ^3 H-PAF.
All buffers containing proteins were made at room temperature on the day of assay. […]

| SMILES | IC50 (Rabbit Platelet [1]) [µM] | IC50 (Rabbit Platelet [2]) [µM] | IC50 (Human Platelet Receptor) [µM] | inhibition at 50 µM (Human Platelet Receptor; read-out: inhibition of 3H-PAF binding) [%] |
| --- | --- | --- | --- | --- |
| C=CCC(C(=O)c1ccc(Cn2ccc3ncnc-3c2)cc1)C1CCCCC1 (stereo not shown) [2-Cyclohexyl-1-[4-(5H-Imidazo[4,5-c]Pyridin-5-yl-Methyl)Phenyl]-4-Penten-1-One] | 0.105 | 0.633 | 0.00222 | – |
| O=C(c1ccc(Cn2ccc3ncnc-3c2)cc1)C(C1CCCCC1)C1CCCC1 (stereo not shown) [2-Cyclohexyl-2-Cyclopentyl-1-[4-(5H Imidazol[4,5-c]Pyridin-5-yl-Methyl)Phenyl]Ethanone] | 0.089 | 0.279 | 0.00146 | – |
| Cc1nnc2n1-c1ccc(Cl)cc1C(c1ccccc1Cl)=NC2 [triazolam, reference compound] | – | – | – | ~50 |
| O=C(CC1CCCC1)c1ccc(Cn2ccc3ncnc-3c2)cc1 [2-Cyclopentyl-1-[4-(5H-Imidazo[4,5-c]Pyridin-5-yl-Methyl)Phenyl]Ethanone] | 0.379 | 2.59 | 0.00841 | – |
| O=C(CC1CCCCC1)c1ccc(Cn2ccc3ncnc-3c2)cc1 [2 Cyclohexyl-1-[4-(5H-Imidazo[4,5-c]Pyridin 5-yl-Methyl)Phenyl]Ethanone] | 0.131 | 0.948 | 0.00444 | – |
